In data set [1] the test system is M. avium. The data set can be described thus: Intracellular growth of M. avium in mouse bone marrow-derived macrophages (mBMDM) in vitro, CFU assay. The data set is classed as cell-based, Mycobacterium avium. Particulars: for M. avium growth in mBMDM: L-try (final 66 μg/ml) or M-try (125 μM) alone; for reductions in the anti-mycobacterial ability of ISS treatment: M. avium-infected mBMDM cultured with L-try (66 μg/ml) or M-try (125 μM) supplemented media plus ISS; for % of CFU: 10 μg/ml 72 h prior to infection, day 7, medium alone = 100%. The procedure: A previously studied M. avium strain 13 (Hayashi, et al. (1999) Infect. Immun. 67:3558-3565; Meylan, et al. (1990) Infect. Immun. 58:2564-2568), isolated from an AIDS patient at UCSD, San Diego, Calif., was used in all experiments. The organism was cultured on Middlebrook 7H11 agar (Difco Laboratories, Detroit, Mich.) with OADC enrichment at 37° C. in the presence of 5% CO2 for two weeks. Transparent colonies were selectively picked and further cultured on Middlebrook 7H11 plates for two more weeks. The resulting colonies, which were predominantly transparent (>90%), were then collected and washed two times with phosphate-buffered saline (PBS). The bacteria were finally resuspended in Middlebrook 7H9 broth (Difco Laboratories) and the OD600 of the suspension was adjusted to 0.15-0.2. The suspension was aliquoted and stored at −70° C. until use. The number of organisms/ml of this suspension was determined by the colony forming unit (CFU) assay.
The number of CFU in a given sample was determined by colony counting as described previously (Ogata, et al. (1992) Infect. Immun. 60:4720-4725). Serial 10-fold dilutions of total cell lysates or tissue homogenates were performed in PBS. 10 μl of each dilution were plated on Middlebrook 7H11 plates supplemented with OADC enrichment. The plates were incubated up to 14 days at 37° C. The number of colonies was counted every alternate day from day 10 onwards until no new colonies appeared. This yielded the number of CFU/10 μl. The number of CFU in each well was then calculated.
Preparation of Murine Macrophages. Mouse bone marrow-derived macrophages (mBMDM) were prepared from mouse bone marrow using L-cell conditioned media, as described in Martin-Orozco, et al. (1999) […] 11:1111-1118.
Alternatively, 5×10^4 mBMDM or hMDM was treated with ISS for 3 days before infection. Macrophages treated with M-ODN or with media alone served as controls. After 3 days, the cells were infected for 2 hrs with M. avium at a macrophage:bacteria ratio of 2:1 for mBMDM or of 1:10 for hMDM, and subsequently cultured in fresh media without antibiotics. To examine attachment and/or invasion of M. avium, the macrophages were lysed immediately after washing, and the number of bacteria were enumerated by the CFU assay. Intracellular growth of M. avium was determined on days 1, 3, and 7 after infection. To account for all the mycobacteria in each group, corresponding lysates were combined and then the number of CFU was determined. To examine the efficacy of anti-mycobacterial treatments, CFU recovered from cells treated with medium alone were considered as 100% growth.
To determine whether treatment with ISS after infection alters M. avium growth, adherent cells were first infected with M. avium for 2 hrs and then these cells were cultured with fresh media containing ISS. Infected cells treated with M-ODN or medium alone served as controls. At day 7, intracellular growth of M. avium was assessed by CFU assay.

In another data set the test system is mBMDM. Briefly: Viability of mBMDM (trypan-blue exclusion). The data set is classed as cell-based, mouse. On the procedure:
To examine whether treatment with ISS can stimulate macrophages to inhibit the growth of M. avium, mBMDM (5×10^4 mBMDM/well) was first treated with ISS or M-ODN for 72 hrs and then infected with M. avium. Then, cellular CFU was counted on days 1, 3, and 7 post-infection (FIG. 9A). By day 7, treatment with ISS inhibited intracellular growth of M. avium in mBMDM by 80% (p<0.001). Since viability of macrophages can affect M. avium growth, the viability of macrophages was assessed by trypan-blue exclusion. […]

The subject of data set [2] is M. avium. Briefly: Growth of M. avium in vivo in C57B1/6 mice, CFU per organ. Details: species or system Mycobacterium avium.
Data set [3] relates to indoleamine 2,3-dioxygenase (IDO). The data set can be described thus: IDO gene induction in vivo in mice, semi-quantitative RT-PCR. The following applies: injection of M-ODN in mice.
The test system of another data set is L. major. Particulars: BALB/c mice; injection four hours after inoculation with live L. major promastigotes; cited from earlier work.
The mark [4] stands for this setting: C57B1/6 mice, 10^7 CFU i.v., treatment from one week after infection, CLA 200 mg/kg alone, 5 weeks after infection.

Regarding `Cn1cc(CC(N)C(=O)O)c2ccccc21` (racemic) [M-try, 1-methyl-DL-tryptophan], in the data set with M. avium [1], the “M. avium growth in mBMDM” value is “did not alter” and the “reductions in the anti-mycobacterial ability of ISS treatment” value is reported as 4 fold. In the data set on mBMDM (L-try (final 66 μg/ml) or M-try (125 μM) alone), the “viability of mBMDM” value is listed as “did not alter”.

Turning to `N[C@@H](Cc1c[nH]c2ccccc12)C(=O)O` [L-try, L-tryptophan], in the data set with M. avium [1], the “M. avium growth in mBMDM” value is “did not alter” and the “reductions in the anti-mycobacterial ability of ISS treatment” value amounted to 4 fold.

In the case of `CC[C@H]1OC(=O)[C@H](C)[C@@H](O[C@H]2C[C@@](C)(OC)[C@@H](O)[C@H](C)O2)[C@H](C)[C@@H](O[C@@H]2O[C@H](C)C[C@H](N(C)C)[C@H]2O)[C@](C)(OC)C[C@@H](C)C(=O)[C@H](C)[C@@H](O)[C@]1(C)O` [CLA, Clarithromycin, reference compound], in the data set on M. avium [2] (setting [4]), the “decrease of bacterial growth in the liver” value worked out at 4 log, the “decrease of bacterial growth in the lungs” value was 1.5 log and the “decrease of bacterial growth in the spleen” value was found to be 4 log. For the same compound, in the data set on M. avium [1] (mBMDM infected first, then treated, ISS 10 μg/ml, CLA 0.1 μg/ml, 7 days after infection, compared to medium alone), the “reduction of bacterial growth in mBMDM” value was determined as 84%.

As to “5′-TGACTGTGAAGGTTAGAGATGA-3′ (SEQ ID NO:3) (chemistry not given here) [M-ODN, mutated control oligodeoxynucleotide with 2 base alteration of the CpG motif]”, in the data set on M. avium [2] (10^7 organisms/mouse, four weeks after infection), the “CFU in the spleen and lungs compared with control (PBS) mice” value is “similar”. Also, the “induction of IDO after injection” value in data set [3] is on record as “did not result in any detectable induction of IDO”. The “% of CFU” value is 106.9 ± 11.9% with M. avium [1] (mBMDM from IFN-αR−/− 129S6/SvEv); 108.1 ± 10.8% with M. avium [1] (mBMDM from IFN-γR−/− 129S6/SvEv); 117.6 ± 9.2% with M. avium [1] (mBMDM from IL-12 p40−/− C57B1/6); 105.0 ± 13.9% in the data set with M. avium [1] (mBMDM from INOS−/− C57B1/6); 107.0 ± 15.5% with M. avium [1] (mBMDM from NADPH oxidase−/− (gp91 phox−/−) C57B1/6); 120.0 ± 20.0% in the data set on M. avium [1] (mBMDM from TNF-α−/− C57B1/6). The entries for the “% of CFU” value with M. avium [1] (mBMDM from Wild type 129S6/SvEV) and in the data set on M. avium [1] (mBMDM from Wild type C57B1/6) were 110.0 ± 15.9% and 117.2 ± 18.5%, respectively. The “viable mBMDM” value with mBMDM was more than 90%.

In the case of CpG-ODN 1826, the “animals protected from progressive infection” value in the data set with L. major is reported as 65%.
